Results from patent publication US20050148570A1, “Novel substituted alkane compounds and uses thereof” (priority 2001, published 2005).
Values after ≈ are worked out from the molar mass of the structure shown. One block for each molecule: values may come before it.

What was measured:
C. diphtheriae = experiment: MIC, broth dilution method; format: cell-based
Experimental: (§1) Antibacterial activity can be determined by several standard methods well known by those skilled in the art, including disc diffusions methods, broth dilution minimal inhibitory concentration (MIC) methods, etc., including the detailed method outlined below. Cultures of bacteria are initially brought up from the freezer by streaking a loopful onto agar plates under the appropriate conditions. For instance stocks are streaked onto chocolate agar and then incubated for 18 hours at 35-37° C. in a 5% CO2 incubator. Five to 10 colonies are picked from the chocolate agar plate for subculture to Brain-Heart Infusion (BHI) broth or Mueller Hinton broth or BHI containing 4% serum and incubated under the appropriate conditions. The ability of the test compound to act as an antimicrobial is determined by the ability to inhibit bacterial, algae, or fungal growth in vitro. The optical density of the culture of organisms in the presence of an active compound is compared to the optical density of the same organism untreated. The activity of the compounds is described as either negative or the lowest concentration inhibiting growth.

E. faecalis = experiment: MIC, broth dilution method; format: cell-based
Experimental: as §1

H. influenzae = experiment: MIC, broth dilution method; format: cell-based
Experimental: as §1

H. pylori = experiment: MIC, broth dilution method; format: cell-based
Experimental: as §1

M. catarrhalis = experiment: MIC, broth dilution method; format: cell-based
Experimental: as §1

M. smegimatis = experiment: MIC, broth dilution method; format: cell-based; settings: for MIC: read-out: MIC Anti-Bacterial Activity
Experimental: as §1

S. aureus = experiment: MIC, broth dilution method; format: cell-based; settings: for MIC: Staphylococcus aureus, read-out: Antibacterial Activity against S. aureus MIC
Experimental: as §1

S. epidermidis = experiment: MIC, broth dilution method; format: cell-based
Experimental: as §1

S. pneumoniae = experiment: MIC, broth dilution method; format: cell-based
Experimental: as §1

S. pyogenes = experiment: MIC, broth dilution method; format: cell-based
Experimental: as §1

[1] = tested on: methicillin-sensitive Staphylococcus aureus; experiment: Wound healing model (FIG. 1); format: in vivo; settings: methicillin-susceptible Staphylococcus aureus; mice; composition applied topically twice daily; sampled 72 hours post-infection
Experimental: (§2) FIG. 1. Efficacy of a composition comprising the compound of Example 9 in the wound healing model. A defined inoculum of approximately 10^5 CFU of methicillin-sensitive Staphylococcus aureus in 20 μl culture medium was pipetted into a wound approximately 1 cm^2 created by removal of the epidermis from the shaved backs of mice. After 24 hours, the composition comprising Example 9, placebo control or positive control ointment was applied twice daily. Approximately, seventy two hours post-infection, the wound was sampled and appropriate dilutions plated on nutritive agars for determination of microbial burden. The number of colony forming units (CFU) of methicillin-sensitive Staphylococcus aureus per wound is shown.
(§3) The wound healing model, using methods generally known by those skilled in the art, is used to measure the efficacy of topically applied compounds in suitable vehicles against any bacteria, for example, Staphylococcus epidermis, Staphylococcus aureus, Streptococcus pyrogenes, Haemophilus influenzae, or mixtures thereof. By removing several epidermal layers by surgical procedure, a superficial wound of approximately 1 cm^2 was created. About 10^5cfu/20 ul of culture medium of any bacteria, for example, S aureus, was applied to the wound. […]

[2] = tested on: methicillin-resistant Staphylococcus aureus; experiment: Wound healing model (FIG. 2); format: in vivo; settings: mice, composition applied topically twice daily, sampled 72 hours post-infection
Experimental: as §2, with “2.” for “1.”, “methicillin-resistant” for “methicillin-sensitive”
as §3

[3] = tested on: Staphylococcus epidermidis; experiment: Wound healing model (FIG. 3); format: in vivo; settings: mice, composition applied topically twice daily, sampled 72 hours post-infection
Experimental: as §2, with “3.” for “1.”, “epidermis” for “aureus”
as §3

MIC (C. diphtheriae; Corynebacterium diphtheriae, read-out: MIC Anti-Bacterial Activity): 1 µg/mL (≈ 3.08 µM)
MIC (E. faecalis; Enterococcus faecalis, read-out: MIC Anti-Bacterial Activity): 2 µg/mL (≈ 6.16 µM)
MIC (H. influenzae; Haemophilus influenzae, read-out: MIC Anti-Bacterial Activity): 1 µg/mL (≈ 3.08 µM)
MIC (H. pylori; Helicobacter pylori, read-out: MIC Anti-Bacterial Activity): 16 µg/mL (≈ 49.3 µM)
MIC (M. catarrhalis; Moraxella catarrhalis, read-out: MIC Anti-Bacterial Activity): 1 µg/mL (≈ 3.08 µM)
MIC (M. smegimatis): 2 µg/mL (≈ 6.16 µM)
MIC (S. aureus): 1 µg/mL (≈ 3.08 µM)
MIC (S. epidermidis; Staphylococcus epidermidis, read-out: MIC Anti-Bacterial Activity): 1 µg/mL (≈ 3.08 µM)
MIC (S. pneumoniae; Streptococcus pneumoniae, read-out: MIC Anti-Bacterial Activity): 6 µg/mL (≈ 18.5 µM)
MIC (S. pyogenes; Streptococcus pyogenes, read-out: MIC Anti-Bacterial Activity): 6 µg/mL (≈ 18.5 µM)
melting point: 135 to 137 °C
SMILES: CCCCC1CC(c2ccc(O)c(C)c2)(c2ccc(O)c(C)c2)C1 [Example 2, 1,1-Bis(4-hydroxy-3-methylphenyl)-3-n-butyl-cyclobutane]

MIC Anti-Bacterial Activity (C. diphtheriae): 1 µg/mL (≈ 2.74 µM)
MIC Anti-Bacterial Activity (E. faecalis): 1 µg/mL (≈ 2.74 µM)
MIC Anti-Bacterial Activity (H. influenzae): 3 µg/mL (≈ 8.21 µM)
MIC Anti-Bacterial Activity (H. pylori): 31 µg/mL (≈ 84.9 µM)
MIC Anti-Bacterial Activity (M. catarrhalis): 1 µg/mL (≈ 2.74 µM)
MIC Anti-Bacterial Activity (M. smegimatis): 1 µg/mL (≈ 2.74 µM)
Antibacterial Activity against S. aureus MIC (S. aureus; S. aureus): 0.5 µg/mL
MIC Anti-Bacterial Activity (S. epidermidis): 1 µg/mL (≈ 2.74 µM)
MIC Anti-Bacterial Activity (S. pneumoniae): 3 µg/mL (≈ 8.21 µM)
MIC Anti-Bacterial Activity (S. pyogenes): 13 µg/mL (≈ 35.6 µM)
SMILES: CCCCC1CC(c2ccc(O)c(Cl)c2)(c2ccc(O)c(Cl)c2)C1 [Example 8, 1,1-Bis(4-hydroxy-3-chloro-phenyl)-3-n-butyl-yclobutane]

SMILES: CCCCCC(C)(c1ccc(O)c(C)c1)c1ccc(O)c(C)c1 [Example 9, 2,2-Bis(4-hydroxy-3-methylphenyl)heptane]
MIC (M. smegimatis): 2 µg/mL (≈ 6.4 µM)
MIC (S. aureus): 1 µg/mL (≈ 3.2 µM)
reducing the population levels of pathogenic bacteria in wound [1]: efficacious
reducing the population levels of pathogenic bacteria in wound [2]: efficacious
reducing the population levels of pathogenic bacteria in wound [3]: efficacious
